From EP4603105A1, “PHARMACEUTICAL COMPOSITION CONTAINING CYCLIC COMPOUND HAVING SELECTIVE KRAS INHIBITORY EFFECT AGAINST HRAS AND NRAS” (CHUGAI SEIYAKU KABUSHIKI KAISHA, priority 2022, dated 2024)

Experiments:
[1] = target: GDP-bound NRAS wild-type protein (Homo sapiens, UniProt P01111); experiment: Binding to NRAS by surface plasmon resonance (SPR), KD and KD ratio to KRAS
Summary of the method: (§1)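 Single-cycle kinetics on GDP-loaded biotin-Avi RAS captured to ~100–300 RU; 75 s ascending injections, 100 µL/min, 30°C. HBS pH 7.4 + 10 mM MgCl2/10 µM GDP/4% DMSO. 1:1 fit, KD.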

[2] = target: HRAS wild-type protein (Homo sapiens, UniProt P01112); experiment: Binding to HRAS by surface plasmon resonance (SPR), KD and KD ratio to KRAS
Summary of the method: as §1

[3] = test system: human lung cancer strain NCI-H441; format: cell-based
Summary of the method: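 Proliferation was scored by […] measured after the reagent was added to cultures kept at 37°C in 5% carbon dioxide.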

[4] = ratio of KD for GDP-bound NRAS wild-type protein to KD for KRAS
[5] = ratio of KD for HRAS wild-type protein to KD for KRAS

Chain of GDP-bound NRAS wild-type protein (P01111 whole entry): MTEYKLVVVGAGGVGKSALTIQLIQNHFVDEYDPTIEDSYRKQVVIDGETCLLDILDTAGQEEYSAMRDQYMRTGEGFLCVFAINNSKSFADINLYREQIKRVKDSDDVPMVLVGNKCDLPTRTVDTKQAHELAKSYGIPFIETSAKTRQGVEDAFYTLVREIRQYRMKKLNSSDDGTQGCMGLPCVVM
Chain of HRAS wild-type protein (P01112 whole entry): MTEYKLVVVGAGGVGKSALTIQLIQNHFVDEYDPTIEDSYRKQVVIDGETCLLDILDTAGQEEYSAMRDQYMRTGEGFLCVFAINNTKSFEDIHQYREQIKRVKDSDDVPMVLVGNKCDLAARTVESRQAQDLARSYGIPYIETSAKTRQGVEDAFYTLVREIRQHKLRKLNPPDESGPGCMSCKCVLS

| IC50 [3] | SMILES | NRAS /KRAS [1, 4] | HRAS /KRAS [2, 5] | NRAS /KRAS ([1]; ratio of the KD value with respect to GDP-bound NRAS wild-type protein to the KD value with respect to KRAS) | HRAS /KRAS ([2]; ratio of the KD value with respect to HRAS wild-type protein to the KD value with respect to KRAS) | NRAS /KRAS ([1]; ratio of KD value for GDP-bound NRAS wild-type protein to KD value for KRAS (SPR)) | HRAS /KRAS ([2]; ratio of KD value for HRAS wild-type protein to KD value for KRAS (SPR)) |
| --- | --- | --- | --- | --- | --- | --- | --- |
| 14.2 nM | CCC[C@H]1C(=O)N[C@@H]([C@@H](C)CC)C(=O)N(C)CC(=O)N(C)[C@H]2C/C=C\CCN(C2=O)[C@@H](Cc2ccc(C(F)(F)F)cc2)C(=O)N(C)CC(=O)N[C@@H](CCc2cc(Cl)c3sccc3c2)C(=O)N2C[C@H](OCC)C[C@H]2C(=O)NC2(CC(C)(C)C2)C(=O)N(C)[C@@H](C(CC)CC)C(=O)N(C)[C@H](C(=O)N(C)C)CC(=O)N1C [PP2888] | AA (a compound having 20 or more is denoted as AA) | A (a compound having 10 or more and less than 20 is denoted as A) | – | – | – | – |
| 1.9 nM | CC[C@H](C)[C@@H]1NC(=O)[C@@H]2CCCCc3ccc(cc3)C[C@@H](C(=O)N(C)CC(=O)N[C@@H](CCc3ccc(C(F)(F)F)c(OC)c3)C(=O)N3CC4(CC4)C[C@H]3C(=O)NC3(CC(C)(C)C3)C(=O)N(C)[C@@H](C3CCCC3)C(=O)N(C)[C@H](C(=O)N(C)CC)CC(=O)N2C)N2CC/C=C\C[C@@H](C2=O)N(C)C(=O)CN(C)C1=O [PP3081] | A (a compound having 10 or more and less than 20 is denoted as A) | B (a compound having 3 or more and less than 10 is denoted as B) | – | – | – | – |
| 3.4 nM | CCCC[C@H]1C(=O)N[C@@H]([C@@H](C)CC)C(=O)N(C)CC(=O)N(C)[C@H]2C/C=C\CCN(C2=O)[C@@H](Cc2ccc(C(F)(F)F)cc2)C(=O)N(C)CC(=O)N[C@@H](CCc2ccc(C(F)(F)F)c(Cl)c2)C(=O)N2C[C@H](OCC)C[C@H]2C(=O)NC2(CC(C)(C)C2)C(=O)N(C)[C@@H](C2CCCC2)C(=O)N(C)[C@H](C(=O)N(C)C)CC(=O)N1C [PP1750] | – | – | – | – | A (a compound having 10 or more and less than 20 is denoted as A) | B (a compound having 3 or more and less than 10 is denoted as B) |

Continued, compound first:

| SMILES | IC50 [3] | NRAS /KRAS [1, 4] | HRAS /KRAS [2, 5] | NRAS /KRAS ([1]; ratio of the KD value with respect to GDP-bound NRAS wild-type protein to the KD value with respect to KRAS) | HRAS /KRAS ([2]; ratio of the KD value with respect to HRAS wild-type protein to the KD value with respect to KRAS) | NRAS /KRAS ([1]; ratio of KD value for GDP-bound NRAS wild-type protein to KD value for KRAS (SPR)) | HRAS /KRAS ([2]; ratio of KD value for HRAS wild-type protein to KD value for KRAS (SPR)) |
| --- | --- | --- | --- | --- | --- | --- | --- |
| CCO[C@@H]1C[C@H]2C(=O)NC3(CCC3)C(=O)N(C)[C@@H](C3CCCC3)C(=O)N(C)[C@H](C(=O)N(C)C)CC(=O)N(C)[C@@H](CC(C)C)C(=O)N[C@@H]([C@@H](C)CC)C(=O)N3CC[C@H]3C(=O)N(C)[C@H]3C[C@@H](C)CCN(C3=O)[C@@H](Cc3ccc(C(F)(F)F)cc3)C(=O)N(C)CC(=O)N[C@@H](CCc3cc(F)c(C(F)(F)F)c(F)c3)C(=O)N2C1 [PP1019] | 7.4 nM | C (A compound having a KD ratio of 0.1 or more and less than 3 is denoted as C) | B (a compound having 3 or more and less than 10 is denoted as B) | – | – | – | – |
| CC[C@H](C)[C@@H]1NC(=O)[C@H](CC(C)C)N(C)C(=O)C[C@@H](C(=O)N2CCOCC2)N(C)C(=O)[C@H](C2CCCC2)N(C)C(=O)C2(CCC2)NC(=O)[C@@H]2CCCN2C(=O)[C@H](CCc2cc(F)c(C(F)(F)F)c(F)c2)NC(=O)CN(C)C(=O)[C@H](Cc2ccc(C(F)(F)F)cc2)N2CCCC[C@@H](C2=O)N(C)C(=O)CN(C)C1=O [PP0560] | 5.2 nM | – | – | B (a compound having 3 or more and less than 10 is denoted as B) | B (a compound having 3 or more and less than 10 is denoted as B) | – | – |
| CCCN1C(=O)CN(C)C(=O)CN(C)C(=O)[C@H]([C@@H](C)CC)NC(=O)[C@@H]2CCCCCCOc3ccc(cc3)C[C@H]1C(=O)N(C)CC(=O)N[C@@H](CCc1cc(F)c(C(F)(F)F)c(F)c1)C(=O)N1C[C@H](OCC)C[C@H]1C(=O)NC1(CCCC1)C(=O)N(C)[C@@H](C1CCCC1)C(=O)N(C)[C@H](C(=O)N(C)C)CC(=O)N2C [PP0896] | 3.1 nM | C (A compound having a KD ratio of 0.1 or more and less than 3 is denoted as C) | C (A compound having a KD ratio of 0.1 or more and less than 3 is denoted as C) | – | – | – | – |
| CC[C@H](C)[C@@H]1NC(=O)[C@H](COC)N(C)C(=O)C[C@@H](C(=O)N2CCOCC2)N(C)C(=O)[C@H](C2CCCC2)N(C)C(=O)C2(CCC2)NC(=O)[C@@H]2CC(F)(F)CN2C(=O)[C@H](CCc2cc(F)c(C(F)(F)F)c(F)c2)NC(=O)CN(C)C(=O)[C@H](Cc2ccc(C(F)(F)F)cc2)N2CCCCC[C@@H](C2=O)N(C)C(=O)CNC1=O [PP0861] | 20.7 nM | B (a compound having 3 or more and less than 10 is denoted as B) | B (a compound having 3 or more and less than 10 is denoted as B) | – | – | – | – |
